Laboratory results: patent US11564923B2, “Compounds and pharmaceutical compositions thereof for the treatment of inflammatory disorders” (Galapagos NV, priority 2017, dated 2023)

Molecular target: T1, Recombinant human TYK2 catalytic domain (amino acids 871-1187) (Homo sapiens, UniProt P29597)
T1 construct: catalytic domain (amino acids 871-1187)
T1 sequence (P29597 871-1187): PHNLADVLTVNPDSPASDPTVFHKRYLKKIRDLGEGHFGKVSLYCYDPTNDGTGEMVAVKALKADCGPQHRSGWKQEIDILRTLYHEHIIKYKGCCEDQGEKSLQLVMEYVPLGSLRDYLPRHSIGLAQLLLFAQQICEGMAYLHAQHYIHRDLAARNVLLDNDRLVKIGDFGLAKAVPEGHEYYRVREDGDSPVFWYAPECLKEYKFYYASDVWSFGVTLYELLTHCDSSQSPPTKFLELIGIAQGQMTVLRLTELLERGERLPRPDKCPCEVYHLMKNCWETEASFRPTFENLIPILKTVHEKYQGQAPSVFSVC
Assay: TYK2 radioactive assay polyGT substrate; note: 0.1 µM ATP
Assay type: biochemical
Description: After 120 min at 30° C., reactions were stopped by adding 25 μL/well of 150 mM phosphoric acid. […] Plates were washed 6 times with 300 μL per well of a 75 mM phosphoric acid solution and the bottom of the plates is sealed. […] Kinase activity is calculated by subtracting counts per min (cpm) obtained in the presence of a positive control inhibitor (10 μM staurosporine) from cpm obtained in the presence of vehicle. The ability of a test compound to inhibit this activity (or percentage inhibition) is determined as: […]
cpm test compound=cpm determined for sample with test compound present cpm control=cpm determined for sample with positive control inhibitor cpm vehicle=cpm determined in the presence of vehicle
Dose dilution series were prepared for the compounds enabling the testing of dose-response effects in the TYK2 assay and the calculation of the IC50 for each compound. Each compound is routinely tested at concentration of 20 μM followed by a 1/5 serial dilution, 10 points in a final concentration of 1% DMSO.

| IC50 [nM] | Compound |
| --- | --- |
| 2.87 | Cc1cc(C#N)ncc1Oc1cc(Nc2ccc(C(=O)N3C[C@@H](O)[C@H](F)C3)cn2)c2ncn(C)c2n1 (racemic) [Compound 140, 4-methyl-5-[3-methyl-7-[[5-[rac-(3R,4R)-3-fluroo-4-hydroxypyrrolidine-1-carbonyl]pyridin-2-yl]amino]imidazo[4,5-b]pyridin-5-yl]oxypyridine-2-carbonitrile] |
| 4.53 | CO[C@@H]1CN(C(=O)c2ccc(Nc3cc(Oc4cnc(C#N)cc4C)nc4c3ncn4C)nc2)C[C@H]1F (racemic) [Compound 142, 4-methyl-5-[3-methyl-7-[[5-[rac-(3R,4R)-3-fluoro-4-methoxypyrrolidine-1-carbonyl]pyridin-2-yl]amino]imidazo[4,5-b]pyridin-5-yl]oxypyridine-2-carbonitrile] |
| 38.9 | CCNC(=O)Cc1ccc(Nc2cc(Oc3cnc(C#N)cc3C)nc3c2ncn3C)cc1 [Compound 27, 2-{4-[5-(6-Cyano-4-methyl-pyridin-3-yloxy)-3-methyl-3H-imidazo[4,5-b]pyridin-7-ylamino]-phenyl}-N-ethyl-acetamide] |
| 27.1 | Cc1cc(C#N)ncc1Oc1cc(Nc2ccc(C(=O)N3CCOCC3)nc2)c2ncn(C)c2n1 [Compound 28, 4-Methyl-5-{3-methyl-7-[6-(morpholine-4-carbonyl)-pyridin-3-ylamino]-3H-imidazo[4,5-b]pyridin-5-yloxy}-pyridine-2-carbonitrile] |
| 97.4 | CNC(=O)c1ccc(Nc2cc(Oc3cnc(C#N)cc3C)nc3c2ncn3C)cn1 [Compound 29, 5-[5-(6-Cyano-4-methyl-pyridin-3-yloxy)-3-methyl-3H-imidazo[4,5-b]pyridin-7-ylamino]-pyridine-2-carboxylic acid methylamide] |
| 2.74 | Cc1cc(C#N)ncc1Oc1cc(Nc2ccc(N3CCN(CC(F)(F)F)CC3)nn2)c2ncn(C)c2n1 [Compound 42, 4-Methyl-5-(3-methyl-7-{6-[4-(2,2,2-trifluoro-ethyl)-piperazin-1-yl]-pyridazin-3-ylamino}-3H-imidazo[4,5-b]pyridin-5-yloxy)-pyridine-2-carbonitrile] |
| 2.17 | Cc1cc(C#N)ncc1Oc1cc(Nc2ccc(N3CCC(C#N)CC3)nn2)c2ncn(C)c2n1 [Compound 45, 5-{7-[6-(4-Cyano-piperidin-1-yl)-pyridazin-3-ylamino]-3-methyl-3H-imidazo[4,5-b]pyridin-5-yloxy}-4-methyl-pyridine-2-carbonitrile] |
| 2.98 | Cc1cc(C#N)ncc1Oc1cc(Nc2ccc(C(=O)N(C)C)c(C)n2)c2ncn(C)c2n1 [Compound 77, 6-[[5-[(6-cyano-4-methyl-3-pyridyl)oxy]-3-methyl-imidazo[4,5-b]pyridin-7-yl]amino]-N,N,2-trimethyl-pyridine-3-carboxamide] |
| 9.36 | Cc1cc(C#N)ncc1Oc1cc(Nc2ccc(C(=O)NCCCO)cn2)c2ncn(C)c2n1 [Compound 101, 6-[[5-[(6-cyano-4-methyl-3-pyridyl)oxy]-3-methyl-imidazo[4,5-b]pyridin-7-yl]amino]-N-(3-hydroxypropyl)pyridine-3-carboxamide] |
| 24.4 | Cc1cc(C#N)ncc1Oc1cc(Nc2ccc(N3CCOCC3)cc2)c2ncn(C)c2n1 [Compound 109, 4-methyl-5-[3-methyl-7-(4-morpholinoanilino)imidazo[4,5-b]pyridin-5-yl]oxy-pyridine-2-carbonitrile] |
| 26.7 | Cc1cc(C#N)ncc1Oc1cc(Nc2ccc(N3CCN(C)CC3)cc2)c2ncn(C)c2n1 [Compound 110, 4-methyl-5-[3-methyl-7-[4-(4-methylpiperazin-1-yl)anilino]imidazo[4,5-b]pyridin-5-yl]oxy-pyridine-2-carbonitrile] |
| 1.57 | Cc1cc(C#N)ncc1Oc1cc(Nc2ccc(C(=O)N3CC4(CCO4)C3)cn2)c2ncn(C)c2n1 [Compound 120, 4-methyl-5-[3-methyl-7-[[5-(3-oxa-6-azaspiro[3.3]heptane-6-carbonyl)-2-pyridyl]amino]imidazo[4,5-b]pyridin-5-yl]oxy-pyridine-2-carbonitrile] |
| 1.9 | COC1(C)CN(C(=O)c2ccc(Nc3cc(Oc4cnc(C#N)cc4C)nc4c3ncn4C)nc2)C1 [Compound 121, 5-[7-[[5-(3-methoxy-3-methyl-azetidine-1-carbonyl)-2-pyridyl]amino]-3-methyl-imidazo[4,5-b]pyridin-5-yl]oxy-4-methyl-pyridine-2-carbonitrile] |
| 3.03 | Cc1cc(C#N)ncc1Oc1cc(Nc2ccc(C(=O)N3CC(C(=O)OC(C)(C)C)C3)cn2)c2ncn(C)c2n1 [Compound 122, tert-butyl 1-[6-[[5-[(6-cyano-4-methyl-3-pyridyl)oxy]-3-methyl-imidazo[4,5-b]pyridin-7-yl]amino]pyridine-3-carbonyl]azetidine-3-carboxylate] |
| 9.38 | Cc1cc(C#N)ncc1Oc1cc(Nc2ccc(C(=O)N3CC4(CN(C)C4)C3)cn2)c2ncn(C)c2n1 [Compound 123, 4-methyl-5-[3-methyl-7-[[5-(6-methyl-2,6-diazaspiro[3.3]heptane-2-carbonyl)-2-pyridyl]amino]imidazo[4,5-b]pyridin-5-yl]oxy-pyridine-2-carbonitrile] |
| 2.51 | Cc1cc(C#N)ncc1Oc1cc(Nc2ccc(C(=O)N3CCC(O)CC3)cn2)c2ncn(C)c2n1 [Compound 124, 5-[7-[[5-(4-hydroxypiperidine-1-carbonyl)pyridin-2-yl]amino]-3-methylimidazo[4,5-b]pyridin-5-yl]oxy-4-methylpyridine-2-carbonitrile] |
| 2.26 | COC1CCN(C(=O)c2ccc(Nc3cc(Oc4cnc(C#N)cc4C)nc4c3ncn4C)nc2)CC1 [Compound 125, 5-[7-[[5-(4-methoxypiperidine-1-carbonyl)pyridin-2-yl]amino]-3-methylimidazo[4,5-b]pyridin-5-yl]oxy-4-methylpyridine-2-carbonitrile] |
| 5.54 | Cc1cc(C#N)ncc1Oc1cc(Nc2ccc(C(=O)N3CCC(N(C)C)CC3)cn2)c2ncn(C)c2n1 [Compound 126, 5-[7-[[5-[4-(dimethyalmino)piperidine-1-carbonyl]pyridin-2-yl]amino]-3-methylimidazo[4,5-b]pyridin-5-yl]oxy-4-methylpyridine-2-carbonitrile] |
| 3.36 | Cc1cc(C#N)ncc1Oc1cc(Nc2ccc(C(=O)N3CC[C@@H](O)C3)cn2)c2ncn(C)c2n1 [Compound 127, 5-[7-[[5-[(3R)-3-hydroxypyrrolidine-1-carbonyl]pyridin-2-yl]amino]-3-methylimidazo[4,5-b]pyridin-5-yl]oxy-4-methylpyridine-2-carbonitrile] |
| 5.87 | Cc1cc(C#N)ncc1Oc1cc(Nc2ccc(C(=O)N3CCN(C(=O)OC(C)(C)C)CC3)cn2)c2ncn(C)c2n1 [Compound 128, 4-{6-[5-(6-Cyano-4-methyl-pyridin-3-yloxy)-3-methyl-3H-imidazo[4,5-b]pyridin-7-ylamino]-pyridine-3-carbonyl}-piperazine-1-carboxylic acid tert-butyl ester] |
| 5.84 | COCCO[C@@H]1CCN(C(=O)c2ccc(Nc3cc(Oc4cnc(C#N)cc4C)nc4c3ncn4C)nc2)C1 [Compound 129, 5-[7-[[5-[(3R)-3-(2-methoxyethoxy)pyrrolidine-1-carbonyl]pyridin-2-yl]amino]-3-methylimidazo[4,5-b]pyridin-5-yl]oxy-4-methylpyridine-2-carbonitrile] |
| 4.67 | Cc1cc(C#N)ncc1Oc1cc(Nc2ccc(C(=O)N3CCC(N(C)C(=O)OC(C)(C)C)C3)cn2)c2ncn(C)c2n1 (centres unmarked) [Compound 130, (1-{6-[5-(6-Cyano-4-methyl-pyridin-3-yloxy)-3-methyl-3H-imidazo[4,5-b]pyridin-7-ylamino]-pyridine-3-carbonyl}-pyrrolidin-3-yl)-methyl-carbamic acid tert-butyl ester] |
| 2.87 | Cc1cc(C#N)ncc1Oc1cc(Nc2ccc(C(=O)N3CCC4(COC4)C3)cn2)c2ncn(C)c2n1 [Compound 131, 4-methyl-5-[3-methyl-7-[[5-(2-oxa-7-azaspiro[3.4]octane-7-carbonyl)pyridin-2-yl]amino]imidazo[4,5-b]pyridin-5-yl]oxypyridine-2-carbonitrile] |
| 8.93 | Cc1cc(C#N)ncc1Oc1cc(Nc2ccc(C(=O)N3CC(CN(C)C)C3)cn2)c2ncn(C)c2n1 [Compound 132, 5-[7-[[5-[3-[(dimethylamino)methyl]azetidine-1-carbonyl]pyridin-2-yl]amino]-3-methylimidazo[4,5-b]pyridin-5-yl]oxy-4-methylpyridine-2-carbonitrile] |
| 2.1 | Cc1cc(C#N)ncc1Oc1cc(Nc2ccc(C(=O)N3CC4(COC4)C3)cn2)c2ncn(C)c2n1 [Compound 134, 4-methyl-5-[3-methyl-7-[[5-(2-oxa-6-azaspiro[3.3]heptane-6-carbonyl)pyridin-2-yl]amino]imidazo[4,5-b]pyridin-5-yl]oxypyridine-2-carbonitrile] |
| 2.08 | Cc1cc(C#N)ncc1Oc1cc(Nc2ccc(C(=O)N3CC(CO)(CO)C3)cn2)c2ncn(C)c2n1 [Compound 135, 5-[7-[[5-[3,3-bis(hydroxymethyl)azetidine-1-carbonyl]pyridin-2-yl]amino]-3-methylimidazo[4,5-b]pyridin-5-yl]oxy-4-methylpyridine-2-carbonitrile] |
